# In PubChem BioAssay AID2060895 (Molecular Pharmacology Branch, DTP, NCI, 2025):
# Test system: PDC 899932-113-R3-J6 complex spheroid viability
# Test: Anticancer human tumor 899932-113-R3-J6-PDC patient-derived melanoma cell line growth inhibition [RAS]
# Conditions: for IC50: curve of first compound; for viability, T/C: stronger effect = lower value
# Outline: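 Agents were tested in combination matrices in half-log decrements from a top concentration at or near clinical Cmax (10 microM if undetermined). Targets were multi-cell spheroids of tumour lines plus HUVEC and MSC stromal cells.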
# [1] = second compound 0.000949 µM, first compound 0.0316 µM
# [2] = second compound 0.000949 µM, first compound 0.1 µM
# [3] = second compound 0.000949 µM, first compound 0.316 µM
# [4] = second compound 0.000949 µM, first compound 1 µM
# [5] = second compound 0.000949 µM, first compound 3.16 µM
# [6] = second compound 0.000949 µM, first compound 10 µM
# [7] = second compound 0.003 µM, first compound 0.0316 µM
# [8] = second compound 0.003 µM, first compound 0.1 µM
# [9] = second compound 0.003 µM, first compound 0.316 µM
# [10] = second compound 0.003 µM, first compound 1 µM
# [11] = second compound 0.003 µM, first compound 3.16 µM
# [12] = second compound 0.003 µM, first compound 10 µM
# [13] = second compound 0.00949 µM, first compound 0.0316 µM
# [14] = second compound 0.00949 µM, first compound 0.1 µM
# [15] = second compound 0.00949 µM, first compound 0.316 µM
# [16] = second compound 0.00949 µM, first compound 1 µM
# [17] = second compound 0.00949 µM, first compound 3.16 µM
# [18] = second compound 0.00949 µM, first compound 10 µM
# [19] = second compound 0.03 µM, first compound 0.0316 µM
# [20] = second compound 0.03 µM, first compound 0.1 µM
# [21] = second compound 0.03 µM, first compound 0.316 µM
# [22] = second compound 0.03 µM, first compound 1 µM
# [23] = second compound 0.03 µM, first compound 3.16 µM
# [24] = second compound 0.03 µM, first compound 10 µM
# [25] = second compound 0.0949 µM, first compound 0.0316 µM
# [26] = second compound 0.0949 µM, first compound 0.1 µM
# [27] = second compound 0.0949 µM, first compound 0.316 µM
# [28] = second compound 0.0949 µM, first compound 1 µM
# [29] = second compound 0.0949 µM, first compound 3.16 µM
# [30] = second compound 0.0949 µM, first compound 10 µM
# [31] = second compound 0.3 µM, first compound 0.0316 µM
# [32] = second compound 0.3 µM, first compound 0.1 µM
# [33] = second compound 0.3 µM, first compound 0.316 µM
# [34] = second compound 0.3 µM, first compound 1 µM
# [35] = second compound 0.3 µM, first compound 3.16 µM
# [36] = second compound 0.3 µM, first compound 10 µM
# 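For viability, T/C in this document: spheroids exposed to agents for seven days before readout; 100% = DMSO vehicle control wells.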
smiles,measurement,setting,value
CC(C)NCC(C(=O)N1CCN(c2ncnc3c2C(C)CC3O)CC1)c1ccc(Cl)cc1 (stereo not drawn) + CCn1c(-c2cccnc2C(C)OC)c2c3cc(ccc31)N1CCOC(CC(NC(=O)C(C(C)C)N(C)C(=O)C3(F)CCN(C(=O)C#CC(C)(C)N(C)C)CC3)C(=O)N3CCCC(N3)C(=O)OCC(C)(C)C2)C1,IC50,second compound 0.000949 µM,5.52 µM
same,IC50,second compound 0.003 µM,5.97 µM
same,IC50,second compound 0.00949 µM,5.59 µM
same,IC50,second compound 0.03 µM,4.9 µM
same,IC50,second compound 0.0949 µM,3.86 µM
same,IC50,second compound 0.3 µM,2.64 µM
same,"viability, T/C",[1],105%
same,"viability, T/C",[2],97.3%
same,"viability, T/C",[3],97%
same,"viability, T/C",[4],84.2%
same,"viability, T/C",[5],62.5%
same,"viability, T/C",[6],36.5%
same,"viability, T/C",[7],112%
same,"viability, T/C",[8],106%
same,"viability, T/C",[9],97.3%
same,"viability, T/C",[10],80%
same,"viability, T/C",[11],68.7%
same,"viability, T/C",[12],36.5%
same,"viability, T/C",[13],111%
same,"viability, T/C",[14],107%
same,"viability, T/C",[15],96%
same,"viability, T/C",[16],90.7%
same,"viability, T/C",[17],59.2%
same,"viability, T/C",[18],39%
same,"viability, T/C",[19],99.3%
same,"viability, T/C",[20],105%
same,"viability, T/C",[21],96.2%
same,"viability, T/C",[22],80.8%
same,"viability, T/C",[23],58%
same,"viability, T/C",[24],38%
same,"viability, T/C",[25],97.3%
same,"viability, T/C",[26],97.8%
same,"viability, T/C",[27],88%
same,"viability, T/C",[28],71.4%
same,"viability, T/C",[29],53.8%
same,"viability, T/C",[30],36.7%
same,"viability, T/C",[31],89.1%
same,"viability, T/C",[32],84.8%
same,"viability, T/C",[33],74.3%
same,"viability, T/C",[34],60.2%
same,"viability, T/C",[35],49.5%
same,"viability, T/C",[36],32.6%
CC(C)n1nc(-c2ccc3oc(N)nc3c2)c2c(N)ncnc21 + CCn1c(-c2cccnc2C(C)OC)c2c3cc(ccc31)N1CCOC(CC(NC(=O)C(C(C)C)N(C)C(=O)C3(F)CCN(C(=O)C#CC(C)(C)N(C)C)CC3)C(=O)N3CCCC(N3)C(=O)OCC(C)(C)C2)C1,IC50,second compound 0.000949 µM,> 0.1 µM
same,IC50,second compound 0.003 µM,> 0.1 µM
same,IC50,second compound 0.00949 µM,> 0.1 µM
same,IC50,second compound 0.03 µM,> 0.1 µM
same,IC50,second compound 0.0949 µM,> 0.1 µM
same,IC50,second compound 0.3 µM,> 0.1 µM
same,"viability, T/C","second compound 0.000949 µM, first compound 0.000316 µM",107%
same,"viability, T/C","second compound 0.000949 µM, first compound 0.001 µM",97.1%
same,"viability, T/C","second compound 0.000949 µM, first compound 0.00316 µM",101%
same,"viability, T/C","second compound 0.000949 µM, first compound 0.01 µM",85%
same,"viability, T/C",[1],60.3%
same,"viability, T/C",[2],100%
same,"viability, T/C","second compound 0.003 µM, first compound 0.000316 µM",92.3%
same,"viability, T/C","second compound 0.003 µM, first compound 0.001 µM",107%
same,"viability, T/C","second compound 0.003 µM, first compound 0.00316 µM",96.7%
same,"viability, T/C","second compound 0.003 µM, first compound 0.01 µM",82%
same,"viability, T/C",[7],65%
same,"viability, T/C",[8],102%
same,"viability, T/C","second compound 0.00949 µM, first compound 0.000316 µM",105%
same,"viability, T/C","second compound 0.00949 µM, first compound 0.001 µM",100%
same,"viability, T/C","second compound 0.00949 µM, first compound 0.00316 µM",92.5%
same,"viability, T/C","second compound 0.00949 µM, first compound 0.01 µM",85.6%
same,"viability, T/C",[13],65.5%
same,"viability, T/C",[14],100%
same,"viability, T/C","second compound 0.03 µM, first compound 0.000316 µM",104%
same,"viability, T/C","second compound 0.03 µM, first compound 0.001 µM",98.5%
same,"viability, T/C","second compound 0.03 µM, first compound 0.00316 µM",89.3%
same,"viability, T/C","second compound 0.03 µM, first compound 0.01 µM",86.1%
same,"viability, T/C",[19],61%
same,"viability, T/C",[20],94.3%
same,"viability, T/C","second compound 0.0949 µM, first compound 0.000316 µM",95.2%
same,"viability, T/C","second compound 0.0949 µM, first compound 0.001 µM",93.5%
same,"viability, T/C","second compound 0.0949 µM, first compound 0.00316 µM",91.3%
same,"viability, T/C","second compound 0.0949 µM, first compound 0.01 µM",76.7%
same,"viability, T/C",[25],61.1%
same,"viability, T/C",[26],93.1%
same,"viability, T/C","second compound 0.3 µM, first compound 0.000316 µM",86.7%
same,"viability, T/C","second compound 0.3 µM, first compound 0.001 µM",80.1%
same,"viability, T/C","second compound 0.3 µM, first compound 0.00316 µM",75.6%
same,"viability, T/C","second compound 0.3 µM, first compound 0.01 µM",57.9%
same,"viability, T/C",[31],51.2%
same,"viability, T/C",[32],92.9%
CC(Nc1ccc2c(c1)OCCn1cc(N3C(=O)OCC3C(F)F)nc1-2)C(N)=O (stereo not drawn) + CCn1c(-c2cccnc2C(C)OC)c2c3cc(ccc31)N1CCOC(CC(NC(=O)C(C(C)C)N(C)C(=O)C3(F)CCN(C(=O)C#CC(C)(C)N(C)C)CC3)C(=O)N3CCCC(N3)C(=O)OCC(C)(C)C2)C1,IC50,second compound 0.000949 µM,1.62 µM
same,IC50,second compound 0.003 µM,1.87 µM
same,IC50,second compound 0.00949 µM,1.38 µM
same,IC50,second compound 0.03 µM,1.37 µM
same,IC50,second compound 0.0949 µM,0.65 µM
same,IC50,second compound 0.3 µM,0.153 µM
same,"viability, T/C",[1],94.8%
same,"viability, T/C",[2],78.5%
same,"viability, T/C",[3],64.5%
same,"viability, T/C",[4],56.1%
same,"viability, T/C",[5],43.4%
same,"viability, T/C",[6],36.1%
same,"viability, T/C",[7],90.1%
same,"viability, T/C",[8],80.9%
same,"viability, T/C",[9],67%
same,"viability, T/C",[10],55.6%
same,"viability, T/C",[11],46%
same,"viability, T/C",[12],34.1%
same,"viability, T/C",[13],94.7%
same,"viability, T/C",[14],80.5%
same,"viability, T/C",[15],66.4%
same,"viability, T/C",[16],51.2%
same,"viability, T/C",[17],44.6%
same,"viability, T/C",[18],36%
same,"viability, T/C",[19],86.5%
same,"viability, T/C",[20],75.8%
same,"viability, T/C",[21],59.8%
same,"viability, T/C",[22],57.2%
same,"viability, T/C",[23],40.5%
same,"viability, T/C",[24],34%
same,"viability, T/C",[25],79.5%
same,"viability, T/C",[26],64.7%
same,"viability, T/C",[27],57%
same,"viability, T/C",[28],46%
same,"viability, T/C",[29],39.2%
same,"viability, T/C",[30],31.8%
same,"viability, T/C",[31],69.5%
same,"viability, T/C",[32],52%
same,"viability, T/C",[33],45%
same,"viability, T/C",[34],36.9%
same,"viability, T/C",[35],34.2%
same,"viability, T/C",[36],29.4%
C[C@@H](NC(=O)c1ncnc(N)c1Cl)c1ncc(C(=O)Nc2cc(C(F)(F)F)c(Cl)cn2)s1 + CCn1c(-c2cccnc2C(C)OC)c2c3cc(ccc31)N1CCOC(CC(NC(=O)C(C(C)C)N(C)C(=O)C3(F)CCN(C(=O)C#CC(C)(C)N(C)C)CC3)C(=O)N3CCCC(N3)C(=O)OCC(C)(C)C2)C1,IC50,second compound 0.000949 µM,9.8 µM
same,IC50,second compound 0.003 µM,8.89 µM
same,IC50,second compound 0.00949 µM,9.63 µM
same,IC50,second compound 0.03 µM,> 10 µM
same,IC50,second compound 0.0949 µM,> 10 µM
same,IC50,second compound 0.3 µM,> 10 µM
same,"viability, T/C",[1],117%
same,"viability, T/C",[2],129%
same,"viability, T/C",[3],141%
same,"viability, T/C",[4],141%
same,"viability, T/C",[5],120%
same,"viability, T/C",[6],48.9%
same,"viability, T/C",[7],122%
same,"viability, T/C",[8],125%
same,"viability, T/C",[9],137%
same,"viability, T/C",[10],150%
same,"viability, T/C",[11],119%
same,"viability, T/C",[12],42.2%
same,"viability, T/C",[13],125%
same,"viability, T/C",[14],127%
same,"viability, T/C",[15],140%
same,"viability, T/C",[16],139%
same,"viability, T/C",[17],120%
same,"viability, T/C",[18],47.1%
same,"viability, T/C",[19],121%
same,"viability, T/C",[20],132%
same,"viability, T/C",[21],139%
same,"viability, T/C",[22],141%
same,"viability, T/C",[23],130%
same,"viability, T/C",[24],52.5%
same,"viability, T/C",[25],114%
same,"viability, T/C",[26],127%
same,"viability, T/C",[27],135%
same,"viability, T/C",[28],138%
same,"viability, T/C",[29],120%
same,"viability, T/C",[30],51.6%
same,"viability, T/C",[31],108%
same,"viability, T/C",[32],118%
same,"viability, T/C",[33],127%
same,"viability, T/C",[34],134%
same,"viability, T/C",[35],117%
same,"viability, T/C",[36],54%
